Assay results published in ChEMBL document CHEMBL1165955, “Synthesis and biological evaluation of novel (4 or 5-aryl)pyrazolyl-indoles as inhibitors of interleukin-2 inducible T-cell kinase (ITK)” (Bioorg Med Chem, 2010).
Active and inactive are the calls of the source. The calls are words filed in the database; no cut-off is given here.

Experiments:
[1] = molecular target: T1, Tyrosine-protein kinase ITK/TSK (Homo sapiens, UniProt Q08881); assay: Inhibition of GST-tagged full length recombinant ITK after 2 hrs by IMAP assay
T1 sequence (Q08881 whole entry): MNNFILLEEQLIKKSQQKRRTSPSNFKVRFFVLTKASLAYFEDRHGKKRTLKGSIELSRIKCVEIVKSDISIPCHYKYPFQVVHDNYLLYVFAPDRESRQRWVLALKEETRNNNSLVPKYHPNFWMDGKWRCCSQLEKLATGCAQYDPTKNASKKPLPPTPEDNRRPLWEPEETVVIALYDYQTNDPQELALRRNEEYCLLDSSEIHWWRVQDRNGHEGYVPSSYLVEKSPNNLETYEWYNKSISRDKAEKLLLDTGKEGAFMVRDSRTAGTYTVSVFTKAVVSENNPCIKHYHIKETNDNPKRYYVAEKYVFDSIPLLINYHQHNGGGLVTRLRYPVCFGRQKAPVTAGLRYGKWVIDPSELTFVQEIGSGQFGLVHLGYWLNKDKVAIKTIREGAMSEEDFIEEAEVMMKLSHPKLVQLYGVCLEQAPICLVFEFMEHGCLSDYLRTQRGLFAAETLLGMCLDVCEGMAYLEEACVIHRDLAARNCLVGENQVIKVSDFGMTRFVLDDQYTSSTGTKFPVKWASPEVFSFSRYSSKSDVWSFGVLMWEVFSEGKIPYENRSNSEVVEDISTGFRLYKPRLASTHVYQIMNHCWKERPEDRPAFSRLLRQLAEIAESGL

[2] = Inhibition of histidine-tagged PKA catalytic domain after 40 mins by IMAP assay
Insulin receptor = Insulin receptor (Homo sapiens, UniProt P06213); assay: Inhibition of GST-tagged recombinant INSR catalytic domain expressed in baculovirus-infected Sf21 cells after 80 mins by IMAP assay
[3] = molecular target: Cyclin-dependent kinase 2/cyclin E1 (Homo sapiens, UniProt P24941); assay: (§1) Inhibition of GST-tagged full length CDK2/Cyclin E after 40 mins by IMAP assay; assay type: protein-complex assay
[4] = molecular target: Glycogen synthase kinase-3 beta (Homo sapiens, UniProt P49841); assay: Inhibition of GST-tagged full length GSK3-beta assessed as inhibition of ATP consumption after 60 mins by luminescence assay
[5] = Selectivity ratio of IC50 for GST-tagged recombinant INSR catalytic domain to IC50 for GST-tagged full length recombinant ITK
[6] = molecular target: Cyclin-dependent kinase 2/cyclin E1 (Homo sapiens, UniProt P24864+P24941); assay: as §1; assay type: protein-complex assay
[7] = molecular target: RAC-alpha serine/threonine-protein kinase (Homo sapiens) (UniProt P31749); assay: Inhibition of histidine-tagged full length AKT1 after 1 hr by IMAP assay
Sequence of RAC-alpha serine/threonine-protein kinase (Homo sapiens) (P31749 whole entry): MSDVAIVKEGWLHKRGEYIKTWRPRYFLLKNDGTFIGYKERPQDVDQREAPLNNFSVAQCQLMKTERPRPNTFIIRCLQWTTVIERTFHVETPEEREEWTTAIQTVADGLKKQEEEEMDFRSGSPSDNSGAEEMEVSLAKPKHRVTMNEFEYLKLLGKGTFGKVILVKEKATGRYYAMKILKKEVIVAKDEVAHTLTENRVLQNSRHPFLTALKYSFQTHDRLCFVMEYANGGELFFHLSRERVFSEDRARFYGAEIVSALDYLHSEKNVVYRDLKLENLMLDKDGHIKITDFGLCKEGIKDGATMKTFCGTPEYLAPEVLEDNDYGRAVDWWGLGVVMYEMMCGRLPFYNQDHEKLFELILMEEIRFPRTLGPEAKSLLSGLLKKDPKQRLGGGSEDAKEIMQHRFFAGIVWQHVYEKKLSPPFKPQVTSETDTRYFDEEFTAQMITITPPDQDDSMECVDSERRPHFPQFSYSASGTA

Sequence of Insulin receptor (P06213 28-758 limits assumed): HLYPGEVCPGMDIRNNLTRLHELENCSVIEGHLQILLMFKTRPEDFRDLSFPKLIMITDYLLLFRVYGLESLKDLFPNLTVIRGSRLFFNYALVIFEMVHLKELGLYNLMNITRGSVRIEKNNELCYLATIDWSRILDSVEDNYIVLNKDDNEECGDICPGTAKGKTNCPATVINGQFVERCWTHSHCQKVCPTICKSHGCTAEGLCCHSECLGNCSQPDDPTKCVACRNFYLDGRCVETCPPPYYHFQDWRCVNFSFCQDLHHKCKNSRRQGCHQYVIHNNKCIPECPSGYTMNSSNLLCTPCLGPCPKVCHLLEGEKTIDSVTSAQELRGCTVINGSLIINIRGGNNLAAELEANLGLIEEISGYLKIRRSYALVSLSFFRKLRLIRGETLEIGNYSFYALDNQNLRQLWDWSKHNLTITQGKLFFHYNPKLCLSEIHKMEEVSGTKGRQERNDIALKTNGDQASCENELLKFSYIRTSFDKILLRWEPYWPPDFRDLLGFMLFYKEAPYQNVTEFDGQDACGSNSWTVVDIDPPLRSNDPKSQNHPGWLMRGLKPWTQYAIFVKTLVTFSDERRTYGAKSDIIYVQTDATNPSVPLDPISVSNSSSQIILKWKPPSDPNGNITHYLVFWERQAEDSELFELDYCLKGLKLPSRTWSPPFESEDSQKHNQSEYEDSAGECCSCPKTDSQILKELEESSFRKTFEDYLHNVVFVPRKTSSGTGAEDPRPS
Sequence of Insulin receptor (P06213 763-1382 limits assumed): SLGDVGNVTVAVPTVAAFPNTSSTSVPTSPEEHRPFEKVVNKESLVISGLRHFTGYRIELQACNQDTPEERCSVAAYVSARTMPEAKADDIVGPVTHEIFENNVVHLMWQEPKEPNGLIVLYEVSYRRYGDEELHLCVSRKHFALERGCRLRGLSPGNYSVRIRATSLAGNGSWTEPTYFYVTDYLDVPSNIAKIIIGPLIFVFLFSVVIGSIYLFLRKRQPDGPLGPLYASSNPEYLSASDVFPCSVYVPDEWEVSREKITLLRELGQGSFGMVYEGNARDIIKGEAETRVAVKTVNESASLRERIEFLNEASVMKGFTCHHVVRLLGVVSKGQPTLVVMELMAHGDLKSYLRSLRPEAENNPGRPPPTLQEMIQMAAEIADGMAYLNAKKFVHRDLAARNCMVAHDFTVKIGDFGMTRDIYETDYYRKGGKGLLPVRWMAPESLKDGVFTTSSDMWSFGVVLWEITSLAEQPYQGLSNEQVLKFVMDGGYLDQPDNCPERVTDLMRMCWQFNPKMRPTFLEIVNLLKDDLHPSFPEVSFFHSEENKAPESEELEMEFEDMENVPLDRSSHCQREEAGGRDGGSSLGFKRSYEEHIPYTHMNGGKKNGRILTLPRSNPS
Sequence of Glycogen synthase kinase-3 beta (P49841 whole entry, the tested form may be a part): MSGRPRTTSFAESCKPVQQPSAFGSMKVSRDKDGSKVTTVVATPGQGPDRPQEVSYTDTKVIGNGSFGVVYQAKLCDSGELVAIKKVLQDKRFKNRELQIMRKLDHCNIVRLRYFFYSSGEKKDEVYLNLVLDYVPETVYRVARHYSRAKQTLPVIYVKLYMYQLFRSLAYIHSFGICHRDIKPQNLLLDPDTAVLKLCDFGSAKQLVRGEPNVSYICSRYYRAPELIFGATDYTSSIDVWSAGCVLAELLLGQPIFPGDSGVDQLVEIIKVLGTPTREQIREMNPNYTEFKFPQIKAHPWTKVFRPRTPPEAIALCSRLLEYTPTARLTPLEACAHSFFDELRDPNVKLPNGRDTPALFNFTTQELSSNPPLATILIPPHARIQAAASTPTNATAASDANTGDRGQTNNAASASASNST

| Compound | IC50 [1] [nM] | IC50 (Insulin receptor) [nM] | IC50 [3] [nM] | other results |
| --- | --- | --- | --- | --- |
| Cn1nccc1CNC(=O)c1ccc2cc(-c3n[nH]cc3-c3ccccc3)[nH]c2c1 | 630 | 9330 | 160 | IC50 ([2]; read-out: IC50): 7080 nM; IC50 ([4]; read-out: IC50): 1260 nM |
| CC(C)CN(C)C(=O)c1ccc2c(CO)c(-c3n[nH]cc3-c3ccccc3)[nH]c2c1 | > 100000 |  |  |  |
| CC(C)CN(C)C(=O)c1ccc2c(CNCc3ccc(F)cc3)c(-c3cc(Cc4ccccc4)[nH]n3)[nH]c2c1 | 500 |  |  |  |
| Cn1nccc1CNC(=O)c1ccc2c(CO)c(-c3cc(Cc4ccccc4)[nH]n3)[nH]c2c1 | 1580 |  |  |  |
| CC(C)CN(C)C(=O)c1ccc2cc(-c3n[nH]cc3-c3ccccc3)[nH]c2c1 | 330 | > 10000 | 3160 | Ratio IC50 [5]: > 30; IC50 [2]: Not Active; IC50 ([4]; read-out: IC50): 6760 nM |
| CC(C)CN(C)C(=O)c1ccc2cc(-c3cc(-c4ccccc4)[nH]n3)[nH]c2c1 | 850 |  |  |  |
| Cn1cncc1CNC(=O)c1ccc2cc(-c3cc(-c4ccccc4)[nH]n3)[nH]c2c1 | 1260 |  |  |  |
| CNC(=O)c1ccc2c(CNCc3ccncc3)c(-c3cc(Cc4ccccc4)[nH]n3)[nH]c2c1 | 5000 |  |  |  |
| Cc1oncc1CNC(=O)c1ccc2cc(-c3cc(-c4ccccc4)[nH]n3)[nH]c2c1 | 1820 |  |  |  |
| COCCNC(=O)c1ccc2cc(-c3cc(-c4ccccc4)[nH]n3)[nH]c2c1 | 3160 |  |  |  |
| COc1ccc(CNCc2c(-c3n[nH]cc3-c3ccccc3)[nH]c3cc(C(=O)N(C)CC(C)C)ccc23)cc1 | 20400 |  |  |  |
| Cn1cncc1CNC(=O)c1ccc2c(CN3CCOCC3)c(-c3cc(Cc4ccccc4)[nH]n3)[nH]c2c1 | 630 |  |  |  |
| CC(C)CN(C)C(=O)c1ccc2cc(-c3cc(Cc4ccccc4)[nH]n3)[nH]c2c1 | 560 | > 100000 |  | IC50 [2]: Not Active; IC50 [6]: Not Active; IC50 [4]: Not Active; inhibition [7]: inactive |
| CC(C)CN(C)C(=O)c1ccc2c(CNCCCO)c(-c3n[nH]cc3-c3ccccc3)[nH]c2c1 | > 100000 |  |  |  |
| Cn1cncc1CNC(=O)c1ccc2cc(-c3cc(Cc4ccccc4)[nH]n3)[nH]c2c1 | 630 | 5010 | 31600 | IC50 [2]: Not Active; IC50 [4]: Not Active |
| Cn1cncc1CNC(=O)c1ccc2cc(-c3n[nH]cc3-c3ccccc3)[nH]c2c1 | 790 | 7080 | 630 | IC50 ([2]; read-out: IC50): 10000 nM; IC50 ([4]; read-out: IC50): 540 nM |
| Cn1nccc1CNC(=O)c1ccc2cc(-c3cc(-c4ccccc4)[nH]n3)[nH]c2c1 | 3160 |  |  |  |
| Cn1nccc1CNC(=O)c1ccc2cc(-c3cc(Cc4ccccc4)[nH]n3)[nH]c2c1 | 1000 | 20000 | 12600 | IC50 [2]: Not Active; IC50 [4]: Not Active |
| COCCNC(=O)c1ccc2cc(-c3n[nH]cc3-c3ccccc3)[nH]c2c1 | 2510 |  |  |  |
| Cc1oncc1CNC(=O)c1ccc2cc(-c3n[nH]cc3-c3ccccc3)[nH]c2c1 | 630 | 5750 | 400 | IC50 ([2]; read-out: IC50): 5010 nM; IC50 ([4]; read-out: IC50): 2290 nM |
